Earlier results in patent US6645913B2, “Adjuvant composition” (Cognis Corporation, priority 1999, dated 2003).

Settings: glyphosate in acid form

In the case of `O=C(O)CNCP(=O)(O)O` [glyphosate, N-phosphonomethylglycine], the water solubility is listed as “about 1.2%”.
